Data: patent US7452997B2 (priority 2004, dated 2008)

Target: human CB2 receptor (Homo sapiens, UniProt P34972)
Assay: Binding assay, cannabinoid CB2 receptor ([3H]-CP-55,940 displacement)
Settings: Cannabinoid CB2 Receptor Binding IC50, human CB2 receptor, SK-N-MC cell membranes, radioligand CP-55,940 0.2 nM
Procedure: (§1) Binding Assay for CB1 or CB2 Agonists or Inverse Agonists
(§2) The human CB1 and CB2 receptors were stably expressed in SK-N-MC cells transfected with pcDNA3 CB-1 (human) or pcDNA3 CB-2 (human). The cells were grown in T-180 cell culture flasks under standard cell culture conditions at 37° C. in a 5% CO2 atmosphere. The cells were harvested by trysinization and homogenized in a homogenization buffer (10 mM Tris, 0.2 mM MgCl2, 5 mM KCl, with protease inhibitors aprotinin, leupeptin, pepstatin A and bacitracin) and centrifuged (2000 g). The supernatant was then centrifuged in 2M sucrose (31,300 g) to produce a semi-purified membrane pellet. The pellet was resuspended in homogenization and store at −80° C.
(§3) On the day of the assay, the pellet was thawed on ice and diluted in assay buffer (50 mM Tris-HCl, 5 mM MgCl2, 2.5 mM EDTA, 0.5 mg/mL fatty acid free bovine serum albumin, pH 7.5). The diluted membrane was added with buffer, test compound or standard and the radioligand [H]^3+-CP-55,940_(0.2 nM) to the wells of a 96-well polypropylene plate. Non-specific binding was measured in wells containing 10 uM WIN 55,212. The plate was covered and incubated for 90 minutes at 30° C. The contents were then aspirated onto a Packard UNIFILTER GF/C filter bottom plate prewet with 0.5% polyethyleneimine. The wells of the polypropylene plate were rinsed and aspirated seven times with a 0.9% saline-0.5% TWEEN 20 solution. The UNIFILTER plate was dried, a scintillation cocktail was added to each well and the counts representing binding were quantitated in a TOPCOUNT scintillation counter.
(§4) The IC50 binding values for compounds tested were calculated by linear regression and were obtained from studies in which varying compound concentrations were used.

human CB2 receptor, sequence (P34972 whole entry): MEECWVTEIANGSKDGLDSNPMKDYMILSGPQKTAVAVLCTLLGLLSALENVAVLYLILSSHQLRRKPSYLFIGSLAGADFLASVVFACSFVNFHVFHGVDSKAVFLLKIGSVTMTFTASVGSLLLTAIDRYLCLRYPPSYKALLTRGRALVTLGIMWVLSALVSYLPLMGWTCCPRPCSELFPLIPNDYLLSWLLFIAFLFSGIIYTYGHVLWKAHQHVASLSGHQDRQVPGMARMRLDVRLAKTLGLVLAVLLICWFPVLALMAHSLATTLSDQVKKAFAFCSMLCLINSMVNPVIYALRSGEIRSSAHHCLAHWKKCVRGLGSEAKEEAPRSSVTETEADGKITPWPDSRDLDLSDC

SMILES | IC50 [nM]
C[C@@H](NC(=O)c1nn(-c2ccccc2)c2c1CC(C(C)(C)C)CC2)C1CCCCC1 (some centres unmarked) [compound 114] | 530
O=C(Nc1nn(Cc2ccccc2)c2c1CCCC2)NC12CC3CC(CC(C3)C1)C2 [compound 337] | 80
O=C(NNC1CCCCCCC1)c1nn(-c2ccc(F)cc2)c2c1CCCC2 [compound 299] | 5520
CC(NC(=O)c1nn(Cc2ccccc2)c2c1CC(C(=O)O)CC2)C12CC3CC(CC(C3)C1)C2 (centres unmarked) [compound 166] | 1700

Target: T1, human CB1 receptor (Homo sapiens, UniProt P21554)
T1 construct: expressed in transfected cells; host or cells: SK-N-MC cells, stably transfected with pcDNA3 CB-1 (human); semi-purified membrane pellet
Assay: biochemical
Assay type: binding
Settings: not given
Procedure: as §1, §2
as §3, with “The diluted membrane was added with buffer, test compound or standard and the radioligand [H]^3+-CP-55,940_(0.2 nM) to the wells of a 96-well polypropylene plate. Non-specific binding was measured in wells containing 10 uM WIN 55,212.” left out, “UNIFILTER” left out
as §4

T1 sequence (P21554 whole entry): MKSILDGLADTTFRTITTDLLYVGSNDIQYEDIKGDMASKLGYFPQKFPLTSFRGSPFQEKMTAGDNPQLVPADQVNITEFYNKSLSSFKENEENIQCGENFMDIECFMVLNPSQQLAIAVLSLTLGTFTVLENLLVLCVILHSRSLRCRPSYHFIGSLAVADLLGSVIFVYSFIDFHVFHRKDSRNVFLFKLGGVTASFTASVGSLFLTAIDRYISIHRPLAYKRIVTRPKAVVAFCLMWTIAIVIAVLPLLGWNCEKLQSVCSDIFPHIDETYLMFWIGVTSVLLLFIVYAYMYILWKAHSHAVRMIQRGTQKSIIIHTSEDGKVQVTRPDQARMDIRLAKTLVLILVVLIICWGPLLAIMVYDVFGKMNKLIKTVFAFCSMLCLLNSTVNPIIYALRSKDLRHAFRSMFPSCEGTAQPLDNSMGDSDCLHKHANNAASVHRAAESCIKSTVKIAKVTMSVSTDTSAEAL

SMILES | IC50 [nM]
C[C@@H](NC(=O)c1nn(-c2ccc(Cl)cc2Cl)c2c1CCCC2=Cc1ccc(Br)cc1)c1ccccc1 [compound 383] | 10
O=C(NN1CCCCC1)c1nn(-c2ccc(Cl)cc2Cl)c2c1CCCC2=Cc1ccsc1 [compound 347] | 18
O=C(NN1CCCCCC1)c1nn(-c2ccc(Cl)cc2Cl)c2c1CCCC2=Cc1ccco1 [compound 373] | 20
C[C@@H](NC(=O)c1nn(-c2ccc(Cl)cc2Cl)c2c1CCC/C2=C\c1ccc(Br)o1)C1CCCCC1 [compound 398] | 48
C[C@@H](NC(=O)c1nn(-c2ccc(Cl)cc2Cl)c2c1CCCC2=Cc1ccsc1)C1CCCCC1 [compound 351] | 12
O=C(NN1CC2CCCC2C1)c1nn(-c2ccc(Cl)cc2Cl)c2c1CCC/C2=C\c1ccsc1 (centres unmarked) [compound 350] | 17
O=C(NN1CCCCC1)c1nn(-c2ccc(Cl)cc2Cl)c2c1CCC/C2=C\c1ccc(Br)cc1 [compound 384] | 21
CC(c1ccccc1)n1nc(C(=O)N[C@@H](C)C2CCCCC2)c2c1CCCC2 (mixture of isomers) [Cpd 249, 1-(1-phenyl-ethyl)-4,5,6,7-tetrahydro-1H-indazole-3-carboxylic acid [(1S)-1-cyclohexyl-ethyl]-amide] | 50
CC1CCCC(C)N1NC(=O)c1nn(-c2ccc(Cl)cc2Cl)c2c1CCCC2=Cc1ccoc1 (centres unmarked) [compound 362] | 38
CC1CCCC(C)N1NC(=O)c1nn(-c2ccc(Cl)cc2Cl)c2c1CCC/C2=C\c1ccc(Cl)s1 (centres unmarked) [compound 389] | 14
O=C(NN1CCCC1)c1nn(-c2ccc(Cl)cc2Cl)c2c1CCCC2=Cc1ccc(Cl)s1 [compound 393] | 43
O=C(NN1CC2CCCC2C1)c1nn(-c2ccc(Cl)cc2Cl)c2c1CCCC2=Cc1cccs1 (centres unmarked) [compound 346] | 33
C[C@@H](NC(=O)c1nn(-c2ccc(Cl)cc2Cl)c2c1CCCC2=Cc1ccc(Br)cc1)C1CCCCC1 [compound 382] | 5
CC(C)(C)OC(=O)NC1CCc2nn(C3CCCCC3)c(C(=O)NC3C4CC5CC(C4)CC3C5)c2C1 (centres unmarked) [compound 84] | 400
CN(C)S(=O)(=O)NC1CCc2c(c(C(=O)NC3C4CC5CC(C4)CC3C5)nn2C2CCCCC2)C1 (centres unmarked) [compound 106] | 12700
O=C(NN1CCCCCC1)c1nn(-c2ccc(Cl)cc2Cl)c2c1CCCC2=Cc1ccc(F)cc1 [compound 339] | 8
O=C(NN1CCCCCC1)c1nn(-c2ccc(Cl)cc2Cl)c2c1CCC/C2=C\c1ccoc1 [compound 363] | 13
O=C(NN1CCCCC1)c1nn(-c2ccc(Cl)cc2Cl)c2c1CCC/C2=C\c1ccco1 [compound 374] | 19
C[C@@H](NC(=O)c1nn(-c2ccc(Cl)cc2Cl)c2c1CCCC2=Cc1ccoc1)C1CCCCC1 [compound 360] | 12
O=C(NN1CCCC1)c1nn(-c2ccc(Cl)cc2Cl)c2c1CCCC2=Cc1ccoc1 [compound 368] | 39
O=C(NN1CCCCC1)c1nn(-c2ccc(Cl)cc2Cl)c2c1CCC/C2=C\c1ccc(Cl)s1 [compound 387] | 33
O=C(N[C@H](CO)c1ccccc1)c1nn(-c2ccc(Cl)cc2Cl)c2c1CCCC2=Cc1ccsc1 [compound 356] | 77
CC1CCCC(C)N1NC(=O)c1nn(-c2ccc(Cl)cc2Cl)c2c1CCCC2=Cc1cccs1 (centres unmarked) [compound 344] | 53
C[C@@H](NC(=O)c1nn(-c2ccc(Cl)cc2Cl)c2c1CCC/C2=C\c1ccc(Cl)s1)c1ccccc1 [compound 386] | 11
C[C@@H](NC(=O)c1nn(-c2ccc(Cl)cc2Cl)c2c1CCCC2=Cc1ccc(Br)o1)c1ccccc1 [compound 397] | 59
CC(C)(C)C1CCc2c(c(C(=O)NC3C4CC5CC(C4)CC3C5)nn2C2CCCCC2)C1 (centres unmarked) [compound 98] | 20500
O=C(NN1CCCC1)c1nn(-c2ccc(Cl)cc2Cl)c2c1CCC/C2=C\c1ccco1 [compound 377] | 43
C[C@@H](NC(=O)c1nn(-c2ccc(Cl)cc2Cl)c2c1CCCC2=Cc1cccs1)C1CCCCC1 [compound 341] | 20

SMILES | IC50 [nM]
O=C(NC(Cc1ccc(OCc2ccccc2)cc1)C(=O)O)c1nn(Cc2ccccc2)c2c1CCCC2 (centres unmarked) [compound 76] | 1960
O=C(NN1CCCCC1)c1nn(-c2ccc(Cl)cc2Cl)c2c1CCC/C2=C\c1ccoc1 [compound 364] | 16
C[C@@H](NC(=O)c1nn(-c2ccc(Cl)cc2Cl)c2c1CCCC2=Cc1ccco1)c1ccccc1 [compound 371] | 39
O=C(NN1CCCCCC1)c1nn(-c2ccc(Cl)cc2Cl)c2c1CCC/C2=C\c1ccsc1 [compound 348] | 11
O=C(NN1CCCCCC1)c1nn(-c2ccc(Cl)cc2Cl)c2c1CCCC2=Cc1cccs1 [compound 343] | 37
O=C(NC1C2CC3CC(C2)CC1C3)c1nn(C2CCCCC2)c2c1CC(C(=O)Nn1cnnc1)CC2 (centres unmarked) [compound 95] | 6400
Cc1ccc(S(=O)(=O)NC2CCc3c(c(C(=O)NC4C5CC6CC(C5)CC4C6)nn3C3CCCCC3)C2)cc1 (centres unmarked) [compound 105] | 8500
CC1CCCC(C)N1NC(=O)c1nn(-c2ccc(Cl)cc2Cl)c2c1CCC/C2=C\c1ccsc1 (centres unmarked) [compound 349] | 40
O=C(NN1CC2CCCC2C1)c1nn(-c2ccc(Cl)cc2Cl)c2c1CCCC2=Cc1ccc(Br)cc1 (centres unmarked) [compound 380] | 32
C[C@@H](NC(=O)c1nn(-c2ccc(Cl)cc2Cl)c2c1CCCC2=Cc1ccc(Cl)s1)C1CCCCC1 [compound 385] | 7
O=C(NN1CCCCCC1)c1nn(-c2ccc(Cl)cc2Cl)c2c1CCC/C2=C\c1ccc(Cl)s1 [compound 388] | 15
C[C@H](NC(=O)c1nn(-c2ccc(Cl)cc2Cl)c2c1CCCC2=Cc1ccc(F)cc1)c1ccccc1 [compound 308] | 19
O=C(NN1CCCC1)c1nn(-c2ccc(Cl)cc2Cl)c2c1CCCC2=Cc1ccsc1 [compound 357] | 21
O=C(NN1CCCC1)c1nn(-c2ccc(Cl)cc2Cl)c2c1CCCC2=Cc1cccs1 [compound 345] | 70
O=C(NN1CC2CCCC2C1)c1nn(-c2ccc(Cl)cc2Cl)c2c1CCC/C2=C\c1ccoc1 (centres unmarked) [compound 365] | 16
CC(C)(C)C1CCc2c(c(C(=O)NCC34CC5CC(CC(C5)C3)C4)nn2C2CCCCC2)C1 (centres unmarked) [compound 102] | 30900
O=C(NN1CCCCC1)c1nn(-c2ccc(Cl)cc2Cl)c2c1CCCC2=Cc1cccs1 [compound 342] | 41
CN(C(=O)NC1CCc2c(c(C(=O)NC3C4CC5CC(C4)CC3C5)nn2C2CCCCC2)C1)c1ccccc1 (centres unmarked) [compound 103] | 2000
O=C(NCCN1CCOCC1)c1nn(Cc2ccccc2)c2c1CCCC2 [compound 175] | 2160
O=C(NC1CCCCCCC1)c1nn(C2CCCCC2)c2c1CCCC2 [compound 128] | 10
C[C@@H](NC(=O)c1nn(-c2ccc(Cl)cc2Cl)c2c1CCC/C2=C\c1ccsc1)c1ccccc1 [compound 353] | 16
O=C(NN1CC2CCCC2C1)c1nn(-c2ccc(Cl)cc2Cl)c2c1CCC/C2=C\c1ccc(Cl)s1 (centres unmarked) [compound 390] | 20
CC12CCC(C1)C(C)(C)C2NC(=O)c1nn(C2CCCCC2)c2c1CC(=O)CC2 (centres unmarked) [Cpd 96, 1-cyclohexyl-5-oxo-4,5,6,7-tetrahydro-1H-indazole-3-carboxylic acid (1,3,3-trimethyl-bicyclo[2.2.1]hept-2-yl)-amide] | 9500
O=C(N[C@@H]1C2CCC(C2)[C@@H]1COCc1ccccc1Br)c1nn(C2CCCCC2)c2c1CCCC2 (some centres unmarked) [compound 108] | 2400
C[C@@H](NC(=O)c1nn(-c2ccc(Cl)cc2Cl)c2c1CCC/C2=C\c1ccoc1)c1ccccc1 [compound 358] | 13
O=C(NN1CC2CCCC2C1)c1nn(-c2ccc(Cl)cc2Cl)c2c1CCC/C2=C\c1ccco1 (centres unmarked) [compound 376] | 16
C[C@@H](NC(=O)c1nn(-c2ccc(Cl)cc2Cl)c2c1CCC/C2=C\c1ccc(Br)cc1)c1ccccn1 [compound 381] | 15
